Results reported in ChEMBL document CHEMBL5465560, “Selectivity Literature for EUbOPEN Chemogenomic Library” (2024).

Tests used:
[1] = molecular target: Casein kinase I isoform gamma-3 (Homo sapiens) (UniProt Q9Y6M4); conditions: at 10 µM
[2] = molecular target: T1, Calcium/calmodulin-dependent protein kinase type IV (Homo sapiens) (UniProt Q16566); test: Selectivity interaction (Upstate Kinase Profiler service (Millipore)) EUB0000056c CAMK4; conditions: at 1 µM
T1 sequence (whole entry): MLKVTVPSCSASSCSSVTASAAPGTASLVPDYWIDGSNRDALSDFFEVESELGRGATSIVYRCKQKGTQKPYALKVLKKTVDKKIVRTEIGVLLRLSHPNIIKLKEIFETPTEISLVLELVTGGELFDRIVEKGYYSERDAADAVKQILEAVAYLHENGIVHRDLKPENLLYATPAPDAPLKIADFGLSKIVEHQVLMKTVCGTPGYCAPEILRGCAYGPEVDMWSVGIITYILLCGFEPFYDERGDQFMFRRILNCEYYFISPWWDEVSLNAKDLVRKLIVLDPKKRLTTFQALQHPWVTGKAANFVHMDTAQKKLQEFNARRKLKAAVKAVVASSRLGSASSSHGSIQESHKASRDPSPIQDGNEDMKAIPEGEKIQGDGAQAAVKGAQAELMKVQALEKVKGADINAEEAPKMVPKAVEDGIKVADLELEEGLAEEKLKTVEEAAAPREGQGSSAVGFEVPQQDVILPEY

[3] = molecular target: Cyclin-dependent kinase 16 (Homo sapiens) (UniProt Q00536); conditions: at 10 µM
Chain of Cyclin-dependent kinase 16 (Homo sapiens) (Q00536 whole entry): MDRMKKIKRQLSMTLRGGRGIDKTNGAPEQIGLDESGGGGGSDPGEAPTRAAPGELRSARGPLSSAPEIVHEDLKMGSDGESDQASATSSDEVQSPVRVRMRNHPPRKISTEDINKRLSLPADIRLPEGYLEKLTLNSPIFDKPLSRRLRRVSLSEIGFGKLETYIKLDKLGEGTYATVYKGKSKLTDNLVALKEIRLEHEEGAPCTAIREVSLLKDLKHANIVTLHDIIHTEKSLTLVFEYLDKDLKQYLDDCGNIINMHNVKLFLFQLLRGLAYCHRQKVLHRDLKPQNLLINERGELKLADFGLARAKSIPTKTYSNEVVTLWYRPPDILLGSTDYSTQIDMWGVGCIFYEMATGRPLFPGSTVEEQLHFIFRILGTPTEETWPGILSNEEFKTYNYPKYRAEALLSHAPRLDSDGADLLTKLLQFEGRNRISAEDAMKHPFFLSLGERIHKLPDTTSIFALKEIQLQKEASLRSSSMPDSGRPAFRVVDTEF

[4] = molecular target: T2, Histone-lysine N-methyltransferase EHMT1 (Homo sapiens) (UniProt Q9H9B1); test: Selectivity interaction (Transferase panel (protein, RNA, and DNA methyltransferases. and EP300 (acetyltransferase))) EUB0000270b EHMT1
T2 sequence (whole entry): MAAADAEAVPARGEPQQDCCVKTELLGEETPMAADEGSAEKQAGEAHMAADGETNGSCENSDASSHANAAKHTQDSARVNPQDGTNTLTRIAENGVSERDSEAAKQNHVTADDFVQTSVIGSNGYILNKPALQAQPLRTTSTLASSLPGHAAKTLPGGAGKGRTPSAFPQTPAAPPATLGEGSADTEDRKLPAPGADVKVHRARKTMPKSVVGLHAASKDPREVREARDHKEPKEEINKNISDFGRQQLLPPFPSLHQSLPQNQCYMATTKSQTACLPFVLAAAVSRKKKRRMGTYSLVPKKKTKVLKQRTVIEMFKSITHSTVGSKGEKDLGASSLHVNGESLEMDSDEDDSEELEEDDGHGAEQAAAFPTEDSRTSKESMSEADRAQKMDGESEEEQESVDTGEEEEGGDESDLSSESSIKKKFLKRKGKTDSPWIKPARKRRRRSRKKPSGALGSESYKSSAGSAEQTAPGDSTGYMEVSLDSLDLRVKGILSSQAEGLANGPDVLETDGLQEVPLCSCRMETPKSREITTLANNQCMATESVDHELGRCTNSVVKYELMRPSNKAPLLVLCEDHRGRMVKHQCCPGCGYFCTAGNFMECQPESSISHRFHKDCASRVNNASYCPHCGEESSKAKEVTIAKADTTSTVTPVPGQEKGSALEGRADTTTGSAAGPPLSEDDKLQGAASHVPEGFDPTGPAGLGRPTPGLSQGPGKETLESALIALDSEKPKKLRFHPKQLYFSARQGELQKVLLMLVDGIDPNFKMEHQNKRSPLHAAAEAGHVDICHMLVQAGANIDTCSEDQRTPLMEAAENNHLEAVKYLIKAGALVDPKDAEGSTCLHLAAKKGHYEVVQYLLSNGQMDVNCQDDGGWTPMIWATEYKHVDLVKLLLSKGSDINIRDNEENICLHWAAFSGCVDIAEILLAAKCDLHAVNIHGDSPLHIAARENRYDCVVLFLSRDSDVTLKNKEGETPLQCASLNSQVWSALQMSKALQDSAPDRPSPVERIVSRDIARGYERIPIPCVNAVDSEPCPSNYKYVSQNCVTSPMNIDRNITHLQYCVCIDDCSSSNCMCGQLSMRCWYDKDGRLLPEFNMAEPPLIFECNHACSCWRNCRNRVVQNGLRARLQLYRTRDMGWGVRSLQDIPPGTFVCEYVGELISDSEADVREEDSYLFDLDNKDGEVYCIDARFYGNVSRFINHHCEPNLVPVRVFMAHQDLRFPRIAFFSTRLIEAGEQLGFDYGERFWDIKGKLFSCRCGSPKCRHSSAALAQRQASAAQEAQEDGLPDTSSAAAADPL

[5] = molecular target: MAP/microtubule affinity-regulating kinase 3 (Homo sapiens) (UniProt P27448); test: Selectivity interaction (ActivX KiNativ screen (kinase selectivity in THP-1 cell lysates)) EUB0000639a MARK3; format: subcellular; conditions: lysate, at 1 µM
Chain of MAP/microtubule affinity-regulating kinase 3 (Homo sapiens) (P27448 whole entry, looked up): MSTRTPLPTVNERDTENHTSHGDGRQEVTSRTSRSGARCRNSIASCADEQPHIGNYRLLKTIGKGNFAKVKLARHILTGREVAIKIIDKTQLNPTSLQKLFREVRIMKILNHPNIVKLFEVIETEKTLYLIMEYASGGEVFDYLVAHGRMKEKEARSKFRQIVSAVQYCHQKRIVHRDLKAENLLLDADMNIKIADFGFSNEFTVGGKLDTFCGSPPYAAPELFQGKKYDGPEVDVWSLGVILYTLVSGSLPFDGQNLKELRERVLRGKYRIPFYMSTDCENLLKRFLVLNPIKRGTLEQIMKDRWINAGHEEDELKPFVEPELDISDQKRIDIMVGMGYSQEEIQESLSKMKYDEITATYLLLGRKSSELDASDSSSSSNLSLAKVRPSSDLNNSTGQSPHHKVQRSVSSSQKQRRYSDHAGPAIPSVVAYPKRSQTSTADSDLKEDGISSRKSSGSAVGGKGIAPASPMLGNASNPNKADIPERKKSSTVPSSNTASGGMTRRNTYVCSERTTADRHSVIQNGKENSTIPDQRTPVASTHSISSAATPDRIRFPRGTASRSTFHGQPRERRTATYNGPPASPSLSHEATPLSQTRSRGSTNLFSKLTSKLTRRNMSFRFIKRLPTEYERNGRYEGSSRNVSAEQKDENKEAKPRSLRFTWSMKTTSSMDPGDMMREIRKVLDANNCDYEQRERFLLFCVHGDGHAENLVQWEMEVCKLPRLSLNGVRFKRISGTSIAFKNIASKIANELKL

[6] = molecular target: T3, Activin receptor type-1 (Homo sapiens) (UniProt Q04771); test: Selectivity interaction (KinomeScan (DiscoverX)) EUB0001049a ACVR1; conditions: at 1 µM
T3 sequence (whole entry): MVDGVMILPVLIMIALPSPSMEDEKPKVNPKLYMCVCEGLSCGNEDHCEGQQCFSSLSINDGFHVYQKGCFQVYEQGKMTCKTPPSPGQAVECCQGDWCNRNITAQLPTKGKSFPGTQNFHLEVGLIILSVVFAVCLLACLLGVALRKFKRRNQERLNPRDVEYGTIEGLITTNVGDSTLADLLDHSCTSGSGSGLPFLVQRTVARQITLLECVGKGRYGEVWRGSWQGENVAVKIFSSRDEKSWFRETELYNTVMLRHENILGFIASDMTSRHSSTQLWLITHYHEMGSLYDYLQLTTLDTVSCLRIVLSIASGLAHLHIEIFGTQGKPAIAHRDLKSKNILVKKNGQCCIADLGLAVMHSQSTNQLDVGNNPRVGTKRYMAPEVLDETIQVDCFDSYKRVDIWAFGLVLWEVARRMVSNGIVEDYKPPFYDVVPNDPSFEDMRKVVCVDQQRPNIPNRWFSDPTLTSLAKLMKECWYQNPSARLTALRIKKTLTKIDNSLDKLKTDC

[7] = molecular target: Vascular endothelial growth factor receptor 3 (Homo sapiens, UniProt P35916); test: Selectivity interaction (KinomeScan (DiscoverX)) EUB0000595a FLT4; conditions: at 10 µM
Chain of Vascular endothelial growth factor receptor 3 (P35916 whole entry): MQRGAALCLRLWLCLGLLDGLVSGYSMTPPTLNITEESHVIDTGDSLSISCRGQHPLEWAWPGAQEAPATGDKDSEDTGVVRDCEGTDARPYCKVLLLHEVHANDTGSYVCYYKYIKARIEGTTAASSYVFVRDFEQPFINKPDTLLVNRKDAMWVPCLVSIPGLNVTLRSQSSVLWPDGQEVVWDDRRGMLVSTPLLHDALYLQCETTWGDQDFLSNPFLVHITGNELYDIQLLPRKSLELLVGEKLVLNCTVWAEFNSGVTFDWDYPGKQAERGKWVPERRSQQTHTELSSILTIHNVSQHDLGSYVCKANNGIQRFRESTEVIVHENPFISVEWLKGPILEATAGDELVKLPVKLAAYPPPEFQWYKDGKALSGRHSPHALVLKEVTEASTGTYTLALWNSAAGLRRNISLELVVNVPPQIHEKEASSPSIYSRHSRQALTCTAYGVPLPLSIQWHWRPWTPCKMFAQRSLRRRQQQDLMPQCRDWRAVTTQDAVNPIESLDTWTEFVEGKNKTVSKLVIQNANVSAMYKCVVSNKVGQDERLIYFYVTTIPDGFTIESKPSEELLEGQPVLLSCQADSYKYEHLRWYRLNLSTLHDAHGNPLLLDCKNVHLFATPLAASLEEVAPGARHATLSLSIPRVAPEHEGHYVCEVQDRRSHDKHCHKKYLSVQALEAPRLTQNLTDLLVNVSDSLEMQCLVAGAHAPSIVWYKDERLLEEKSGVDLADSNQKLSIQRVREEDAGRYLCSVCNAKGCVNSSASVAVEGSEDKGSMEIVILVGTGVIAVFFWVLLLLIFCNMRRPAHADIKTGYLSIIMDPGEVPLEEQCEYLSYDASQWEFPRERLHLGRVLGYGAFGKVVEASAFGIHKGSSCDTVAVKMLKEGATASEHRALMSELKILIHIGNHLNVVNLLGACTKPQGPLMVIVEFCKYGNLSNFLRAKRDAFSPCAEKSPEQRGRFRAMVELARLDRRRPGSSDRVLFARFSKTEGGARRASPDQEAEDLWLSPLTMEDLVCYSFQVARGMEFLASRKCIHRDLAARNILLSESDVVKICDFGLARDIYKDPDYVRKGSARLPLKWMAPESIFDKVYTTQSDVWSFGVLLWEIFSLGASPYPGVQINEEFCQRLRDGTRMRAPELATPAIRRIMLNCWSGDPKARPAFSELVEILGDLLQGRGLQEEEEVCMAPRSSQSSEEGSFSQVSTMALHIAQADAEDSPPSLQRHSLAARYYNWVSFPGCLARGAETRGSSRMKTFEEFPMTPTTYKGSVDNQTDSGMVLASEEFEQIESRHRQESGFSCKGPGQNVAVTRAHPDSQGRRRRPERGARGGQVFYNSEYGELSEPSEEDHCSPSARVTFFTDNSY

[8] = molecular target: Tyrosine-protein kinase Fer (Homo sapiens) (UniProt P16591); test: Selectivity interaction (ActivX KiNativ screen (ex vivo kinase selectivity in human PBMCs)) EUB0001619a FER; format: cell-based; conditions: PBMC, at 1 µM
Chain of Tyrosine-protein kinase Fer (Homo sapiens) (P16591 whole entry, looked up): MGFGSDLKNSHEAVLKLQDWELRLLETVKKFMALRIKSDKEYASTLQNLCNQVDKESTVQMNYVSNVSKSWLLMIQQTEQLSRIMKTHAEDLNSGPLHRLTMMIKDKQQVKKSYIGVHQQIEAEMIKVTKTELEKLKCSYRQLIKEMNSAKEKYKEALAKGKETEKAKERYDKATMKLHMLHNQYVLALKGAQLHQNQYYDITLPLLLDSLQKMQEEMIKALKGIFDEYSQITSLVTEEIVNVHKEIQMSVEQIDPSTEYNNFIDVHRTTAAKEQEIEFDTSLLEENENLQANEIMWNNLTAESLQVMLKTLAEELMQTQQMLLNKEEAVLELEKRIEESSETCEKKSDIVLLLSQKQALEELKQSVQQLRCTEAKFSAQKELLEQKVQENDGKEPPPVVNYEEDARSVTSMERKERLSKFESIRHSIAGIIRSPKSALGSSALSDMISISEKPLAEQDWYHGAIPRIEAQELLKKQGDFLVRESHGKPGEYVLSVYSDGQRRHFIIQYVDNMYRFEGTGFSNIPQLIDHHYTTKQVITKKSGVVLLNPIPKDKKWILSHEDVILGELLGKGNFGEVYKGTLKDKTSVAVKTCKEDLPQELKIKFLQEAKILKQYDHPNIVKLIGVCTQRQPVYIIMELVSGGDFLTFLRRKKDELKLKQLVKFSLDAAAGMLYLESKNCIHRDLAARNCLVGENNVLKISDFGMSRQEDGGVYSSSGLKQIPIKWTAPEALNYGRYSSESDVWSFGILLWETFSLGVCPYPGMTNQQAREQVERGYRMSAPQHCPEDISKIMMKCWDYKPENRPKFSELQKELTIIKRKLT

Chain of Casein kinase I isoform gamma-3 (Homo sapiens) (Q9Y6M4 whole entry, looked up, canonical isoform): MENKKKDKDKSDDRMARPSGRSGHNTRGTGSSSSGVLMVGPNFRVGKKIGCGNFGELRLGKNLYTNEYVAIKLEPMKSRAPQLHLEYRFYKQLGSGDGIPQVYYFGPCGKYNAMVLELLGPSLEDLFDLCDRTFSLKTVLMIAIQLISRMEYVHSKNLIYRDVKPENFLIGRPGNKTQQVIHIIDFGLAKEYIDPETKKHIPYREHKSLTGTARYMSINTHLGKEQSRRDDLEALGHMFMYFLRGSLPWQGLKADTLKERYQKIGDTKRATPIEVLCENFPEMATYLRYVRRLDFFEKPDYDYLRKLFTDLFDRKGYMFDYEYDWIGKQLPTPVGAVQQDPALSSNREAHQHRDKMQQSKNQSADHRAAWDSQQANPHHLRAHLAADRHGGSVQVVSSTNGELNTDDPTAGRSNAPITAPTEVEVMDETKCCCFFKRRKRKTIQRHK

Question: CCN(CC)CCCCNc1ncc2cc(-c3cc(OC)cc(OC)c3)c(NC(=O)NC(C)(C)C)nc2n1 was tested. Which % of control [1] did it give?
Answer: 100%

Question: Which % of inhibition [2] does the source give for Cc1ccc(-c2ccc3c(ccc4sc5c(c43)NC[C@@H](C)NC5=O)n2)cn1 here?
Answer: 15%

Question: With Cc1cc([C@@H](C)Nc2ccccc2C(=O)O)c2nc(N3CCOCC3)cc(=O)n2c1 [AZD-6482] as the molecule, how does the % of control [3] read?
Answer: 100%

Question: Which % activity ([4]; at 1 µM) does the source give for Cc1cc(CN)cc(C)c1-c1ncn(C)c1-c1cncn1C here?
Answer: > 90%

Question: What about the % activity ([4]; at 10 µM) of the same molecule?
Answer: > 80%

Question: With CC[C@@H]1[C@H](F)C(=O)N[C@@H]1COc1nccc2cc(C(N)=O)c(OC)cc12 [ZIMLOVISERTIB] as the molecule, how does the % of inhibition [5] read?
Answer: 21.6%

Question: For COc1cc(Nc2nc(C)cc(-c3cnn4nc(OC)ccc34)n2)cc(C(F)(F)F)c1, which % of control [6] is on record?
Answer: 78%

Question: COCC(=O)NC/C=C/c1ccc2ncnc(Nc3ccc(Oc4ccc(C)nc4)c(C)c3)c2c1 [CP-724714] was tested. Which % of control [7] did it give?
Answer: 98%

Question: For N#Cc1cccc(-c2c[nH]c3ncnc(N4CCOCC4)c23)c1, which % of inhibition [8] is on record?
Answer: 12%
